Where “and” joins values, the source holds several entries; their conditions need not be identical. Identical values can stand only once. Like-named read-outs stand apart in the source and are kept apart here.
What was measured:
[1] = tested on: Mammary gland HCC38 cells; assay: CyQUANT-NF proliferation assay, 48-h drug treatment; format: cell-based
Prostate LNCaP cells = assay: cells
Method: (§1) The percentage of growth inhibition was calculated as follows: […]

NCI-H1975 NSCLC cells = assay: cells
Method: as §1

Prostate PC3 cells = assay: cells
Method: as §1

Ovary TOV21G cells = assay: cells
Method: as §1

A549 NSCLC cells = assay: cells
Method: as §1

Prostate DU145 cells = assay: cells
Method: as §1

[2] = tested on: Strain-2 and Strain-3 NHMECs; format: cell-based; conditions: for cell growth, % of control cell values: 500 µM
Source text: Normal human mammary epithelial cell (NHMEC) strains used to assess potential cytotoxicity of 4SP65 and 1LP65 were established from reduction mammoplasty tissue from a healthy donor (M99005 or ‘Strain-1’) ([53]) or purchased from ATCC (Manassas, VA, USA; batch#70043304 or ‘Strain-2’) or Cell Applications (San Diego, CA, USA; lot#1669 or ‘Strain-3’). Human cancer cell lines including HCC38, MDA-MB-231, A549, National Cancer Institute (NCI)-H460, NCI-H1437, NCI-H1975, DU145, LNCaP, PC3, PANC1, SKOV3, and HL60, which were free of Mycoplasma, were purchased from ATCC. HMESO1, PPMMill, and TOV21G cells, obtained from Dr. Brian Cunniff, were verified to be Mycoplasma negative using the LookOut® Mycoplasma PCR Detection Kit (Sigma-Aldrich) and to match previously annotated DNA fingerprints by the Vermont Integrative Genomics Resource DNA Analysis Facility.
To assess the effects of 4SP65 or 1LP65 on the growth of normal epithelium, experiments were performed using NHMEC strains from differing donors ([53]). Strain-1 NHMECs were plated at 5,000 cells/well in 24-well plates and allowed to reach 50% confluence before treatment with 0-150 µM 4SP65 for 48 h. Cell viability was determined using a hemocytometer and trypan blue exclusion assay. Two other NHMEC strains, exposed to 0-150 µM 4SP65 or 0-500 µM 1LP65 for 48 h, were handled in the same fashion except that viability of cells in 96-well plates was determined using CyQUANT dye. Due to the short life span of these NHMECs, standard curves were not generated and fluorescence readings were used as a surrogate marker of cell number ([54]).

NCI-H460 NSCLC cells = conditions: 48-h treatment, amifostine ND = not definable up to 500 µM
Source text: To test anticancer effectiveness of individual drugs or drug combinations, the CyQUANT®-NF proliferation assay was used with a plate reader (i) to generate standard curves for cell numbers for each cell line, (ii) to measure the starting cell numbers at initiation of drug treatment, and (iii) to obtain fluorescence readings from cells in 96-well plates for comparisons to a standard curve for the relevant cancer cell line and quantifying cell viability after drug treatments. […] Trypan blue exclusion was used to estimate cell numbers in a few pilot experiments and thereafter was applied to confirm very low viable cell numbers and cell death.
A series of experiments was conducted to determine the relative efficacy of 4SP65, 1LP65, and amifostine as single agents in the same human cancer cell lines.
Five metrics were calculated and used to characterize the shape of the dose-response curve following exposure to a single test agent. Using cell numbers based on fluorescence measurements and standard curves, the percentage growth was calculated at each drug concentration level. The percentage of growth inhibition was calculated as follows:
where Tz = cell numbers or fluorescence counts at time xero, C = vehicle-exposed control cell numbers at the end of the assessment time period, and Ti = test agent-exposed cell numbers or fluorescence counts at each drug concentration. […] The LC50/99 was calculated using Equation 2 = -50 and Eq. 2 = -99, respectively. […] For NHMECs, the relationships between drug exposure levels and fluorescence units were used to define dose-response metrics. The selectivity index values for individual drugs were calculated using IC50 levels in NHMECs divided by the IC50 value for each cancer cell line. Statistical comparisons of differences in individual dose-response metrics between drug treatments and cell lines were conducted using Student’s t-test, with P-values <0.05 considered significant.
Relative cell growth inhibition values for differing levels of each drug alone and in combination were input into SynergyFinder to generate dose-response curves for each drug alone and to produce a dose-response matrix. The dose-response matrix data then were used in generating a two-dimension heatmap and three-dimension volcano plot to visualize the distribution of areas of differing degrees of synergism and to calculate average and maximum synergy scores in selected human cancer cell lines. The expected drug combination responses were calculated using both the Highest Single Agent (HSA) model and the Zero interaction potency (ZIP) model.

[3] = 48-h treatment, amifostine ND = not definable up to 500 µM
[4] = read-out: LC50, 48-h treatment, amifostine ND = not definable up to 500 µM
[5] = pretreated with 1 mM DFMO for 24 h, then 48 h
[6] = without DFMO pretreatment, 48 h

SMILES: COCCOCCOCCOCCOCCOCCSSCCNCCCN.O=C(O)C(F)(F)F.O=C(O)C(F)(F)F [1LP65, m-PEG6-S-S-WR1065]
- GI50 [1, 3]: 36.5 ± 2.3 µM
- IC50 [1, 3]: 47.3 ± 2.2 µM
- LC99 [1, 3]: 83.9 ± 2.9 µM
- TGI [1, 3]: 46.9 ± 2.5 µM
- CC50 ([1]; 48-h treatment, amifostine ND = not definable up to 500 µM, read-out: LC50 (the source's name)): 59.9 ± 2.9 µM
- Dose reduction value AMF ÷ 1LP65 ([1]; at GI50): 2.1 fold
- Dose reduction value AMF ÷ 1LP65 ([1]; at IC50): 5.8 fold
- Dose reduction value AMF ÷ 1LP65 ([1]; at TGI): 5.4 fold
- GI50 (Prostate LNCaP cells; [3]): 28.3 ± 1.9 µM
- IC50 (Prostate LNCaP cells; [3]): 44.3 ± 2.8 µM
- LC99 (Prostate LNCaP cells; [3]): 114 ± 8.4 µM
- TGI (Prostate LNCaP cells; [3]): 51.7 ± 3.8 µM
- Dose reduction value AMF ÷ 1LP65 (Prostate LNCaP cells; at GI50): 5.3 fold
- Dose reduction value AMF ÷ 1LP65 (Prostate LNCaP cells; at IC50): 8.5 fold
- CC50 (Prostate LNCaP cells; [4]): 88.8 ± 7.1 µM
- GI50 (NCI-H1975 NSCLC cells; [3]): 38.9 ± 2 µM
- IC50 (NCI-H1975 NSCLC cells; [3]): 52.3 ± 4.4 µM
- LC99 (NCI-H1975 NSCLC cells; [3]): 86.8 ± 2.7 µM
- TGI (NCI-H1975 NSCLC cells; [3]): 51.8 ± 4.9 µM
- Dose reduction value AMF ÷ 1LP65 (NCI-H1975 NSCLC cells; at GI50): 3.3 fold
- CC50 (NCI-H1975 NSCLC cells; [4]): 63.3 ± 5.2 µM
- GI50 (Prostate PC3 cells; [3]): 22.9 ± 1.8 µM
- IC50 (Prostate PC3 cells; [3]): 37.5 ± 4.6 µM
- LC99 (Prostate PC3 cells; [3]): 86.3 ± 8.9 µM
- TGI (Prostate PC3 cells; [3]): 40.5 ± 2.8 µM and 40.5 µM
- Dose reduction value AMF ÷ 1LP65 (Prostate PC3 cells; at GI50): 2.3 fold
- Dose reduction value AMF ÷ 1LP65 (Prostate PC3 cells; at IC50): 2.8 fold
- Dose reduction value AMF ÷ 1LP65 (Prostate PC3 cells; at TGI): 7.4 fold
- CC50 (Prostate PC3 cells; [4]): 60 ± 1.1 µM
- GI50 (Ovary TOV21G cells; [3]): 21.3 ± 3.8 µM
- IC50 (Ovary TOV21G cells; [3]): 26.3 ± 3.6 µM
- LC99 (Ovary TOV21G cells; [3]): 92.0 ± 2.8 µM
- TGI (Ovary TOV21G cells; [3]): 32.7 ± 6.2 µM
- Dose reduction value AMF ÷ 1LP65 (Ovary TOV21G cells; at GI50): 2.2 fold
- Dose reduction value AMF ÷ 1LP65 (Ovary TOV21G cells; at IC50): 1.6 fold
- CC50 (Ovary TOV21G cells; [4]): 51.3 ± 12.2 µM
- CC50 (A549 NSCLC cells): 155 ± 8 µM
- GI50 (A549 NSCLC cells): 52.3 µM and 52 µM
- IC50 (A549 NSCLC cells): 66.6 ± 7.9 µM
- LC99 (A549 NSCLC cells): 187 ± 11 µM
- TGI (A549 NSCLC cells): 126 ± 3 µM and 126 µM
- Dose reduction value AMF ÷ 1LP65 (A549 NSCLC cells; at GI50): 5.5 fold
- Dose reduction value AMF ÷ 1LP65 (A549 NSCLC cells; at IC50): 4.4 fold
- GI50 (A549 NSCLC cells; [5]): 17.1 µM
- IC50 (A549 NSCLC cells; [5]): 33.1 µM
- GI50 (A549 NSCLC cells; [6]): 38.6 µM
- IC50 (A549 NSCLC cells; [6]): 51 µM
- GI50 (Prostate DU145 cells; [3]): 26.3 ± 3.8 µM
- IC50 (Prostate DU145 cells; [3]): 39.8 ± 3.1 µM
- LC99 (Prostate DU145 cells; [3]): 83.5 ± 5.5 µM
- TGI (Prostate DU145 cells; [3]): 52.8 ± 5.3 µM and 52.8 µM
- Dose reduction value AMF ÷ 1LP65 (Prostate DU145 cells; at GI50): 4.8 fold
- Dose reduction value AMF ÷ 1LP65 (Prostate DU145 cells; at IC50): 8.0 fold
- CC50 (Prostate DU145 cells; [4]): 71.4 ± 4.3 µM
- IC50 ([2]; Strain-2 NHMECs, 48 h, read-out: IC50): > 500 µM
- IC50 ([2]; Strain-2 and Strain-3, read-out: average IC50 for the two normal cell strains): > 355 µM
- cell growth, % of control cell values ([2]; Strain-2 cells, 48 h): 19.5%
- IC50 ([2]; Strain-3 NHMECs, 48 h, read-out: IC50): 210 µM
- cell growth, % of control cell values ([2]; Strain-3 cells, 48 h): 12.5%
- GI50 (NCI-H460 NSCLC cells): 77.7 ± 15 µM
- IC50 (NCI-H460 NSCLC cells): 90.1 ± 16.6 µM
- LC99 (NCI-H460 NSCLC cells): 182 ± 6.7 µM
- TGI (NCI-H460 NSCLC cells): 124 ± 13.3 µM and 124 µM
- CC50 (NCI-H460 NSCLC cells; read-out: LC50): 155 ± 5.1 µM

Source: article PMC10419174, “WR1065 conjugated to thiol-PEG polymers as novel anticancer prodrugs: broad spectrum efficacy, synergism, and drug resistance reversal” (Frontiers in Oncology, 2023)
